Where two headings read alike, the source gives them in different places.
Experiments:
Assay in all cases: MIC, sole activity (no second agent)
Assay type in all cases: cell-based
Acinetobacter baumannii = details: for MIC: Acinetobacter baumannii, NCTC13424; for MIC A. baumannii ATCC BAA-747 / MIC A. baumannii NCTC 13424: Table 6A, no second agent, different supplier of Cation-adjusted MHB
Procedure: (§1) To evaluate the potency and spectrum of the compounds both alone and in combination with another agent, susceptibility testing was performed against up to four strains of each of the four Gram negative pathogens, Escherichia coli, Pseudomonas aeruginosa, Klebsiella pneumoniae and Acinetobacter baumannii.
(§2) The inoculum was prepared by making a direct suspension of isolated colonies (selected from an 18-24 hour Mueller-Hinton agar plate) adjusted to the 0.5 McFarland standard.
(§3) The assays were performed in duplicate.
(§4) In cases where the duplicate values varied by less than 2-fold, the lower of the two values is reported. If a variation of greater than 2-fold was observed, the assay was considered non-valid. Several of the compounds were subjected to multiple tests, and where this is the case, the MIC reflects the modal value obtained.
(§5) MICs were determined as described herein, except that a different supplier of Cation-adjusted MHB was used. […] Values are reported relative to Polymyxin B.

Escherichia coli = details: for MIC: Escherichia coli; for MIC E. coli ATCC25922 / MIC E. coli NCTC 13441: Table 6A, no second agent, different supplier of Cation-adjusted MHB
Procedure: as §1, §2, §3, §4, §5

Klebsiella pneumoniae = details: for MIC: Klebsiella pneumoniae; for MIC K. pneumoniae ATCC 4352 / MIC K. pneumoniae ATCC BAA-2146: Table 6A, no second agent, different supplier of Cation-adjusted MHB
Procedure: as §1, §2, §3, §4, §5

Pseudomonas aeruginosa = details: for MIC: Pseudomonas aeruginosa; for MIC P. aeruginosa ATCC 27853 / MIC P. aeruginosa CCUG 59347: Table 6A, no second agent, different supplier of Cation-adjusted MHB
Procedure: as §1, §2, §3, §4, §5

Compound	MIC A. baumannii ATCC BAA-747 (Acinetobacter baumannii) [micrograms/mL]	MIC A. baumannii NCTC 13424 (Acinetobacter baumannii) [micrograms/mL]	MIC E. coli ATCC25922 (Escherichia coli) [micrograms/mL]	MIC E. coli NCTC 13441 (Escherichia coli) [micrograms/mL]	MIC K. pneumoniae ATCC 4352 (Klebsiella pneumoniae) [micrograms/mL]	MIC K. pneumoniae ATCC BAA-2146 (Klebsiella pneumoniae) [micrograms/mL]	MIC P. aeruginosa ATCC 27853 (Pseudomonas aeruginosa) [micrograms/mL]	MIC P. aeruginosa CCUG 59347 (Pseudomonas aeruginosa) [micrograms/mL]	other results
O=C(O)c1cn(C2CC2)c2cc(N3CCNCC3)c(F)cc2c1=O [Ciprofloxacin, reference compound]									MIC (Acinetobacter baumannii; Second Agent none (Table 7B, by row order), read-out: MIC A. baumannii (NCTC 13424)): 1 µg/mL; MIC (Escherichia coli; ATCC25922, Second Agent none (Table 7B), read-out: MIC E. coli ATCC25922): ≤ 0.06 µg/mL; MIC (Escherichia coli; CCUG59342, Second Agent none (Table 7B), read-out: MIC E. coli CCUG 59342): 16 µg/mL; MIC (Escherichia coli; NCTC9001, Second Agent none (Table 7B), read-out: MIC E. coli (NCTC9001)): ≤ 0.06 µg/mL; MIC (Klebsiella pneumoniae; ATCC4352, Second Agent none (Table 7B, by row order), read-out: MIC K. pneumoniae (ATCC4352)): ≤ 0.06 µg/mL; MIC (Klebsiella pneumoniae; ATCCBAA1706, Second Agent none (Table 7B, by row order), read-out: MIC K. pneumoniae ATCC BAA-1706): 4 µg/mL; MIC (Klebsiella pneumoniae; CCUG59348, Second Agent none (Table 7B), read-out: MIC K. pneumoniae CCUG 59348): > 32 µg/mL; MIC (Klebsiella pneumoniae; NCTC13442, Second Agent none (Table 7B), read-out: MIC K. pneumoniae NCTC 13442): 2 µg/mL; MIC (Pseudomonas aeruginosa; ATCC27853, Second Agent none (Table 7B, by row order), read-out: MIC P. aeruginosa ATCC 27853): 0.125 µg/mL; MIC (Pseudomonas aeruginosa; CCUG59626, Second Agent none (Table 7B, by row order), read-out: MIC P. aeruginosa CCUG 59626): 0.5 µg/mL
CO[C@@H]1[C@@H](OC(N)=O)[C@@H](O)[C@H](Oc2ccc3c(O)c(NC(=O)c4ccc(O)c(CC=C(C)C)c4)c(=O)oc3c2C)OC1(C)C [Novobiocin, reference compound]									MIC (Acinetobacter baumannii; Table 7H, A. baumannii NCTC 13424, second agent none): 4 µg/mL; MIC (Escherichia coli; NCTC13441, Table 7H, E. coli NCTC 13441, second agent none, read-out: MIC E. coli NCTC 13441): > 32 µg/mL; MIC (Escherichia coli; Table 7H, E. coli ATCC25922, second agent none, read-out: MIC E. coli ATCC25922): 16 µg/mL; MIC (Klebsiella pneumoniae; CCUG59349, Table 7H, K. pneumoniae CCUG 59349, second agent none, read-out: MIC K. pneumoniae CCUG 59349): > 32 µg/mL; MIC (Klebsiella pneumoniae; Table 7H, K. pneumoniae ATCC4352, second agent none, read-out: MIC K. pneumoniae ATCC4352): 0.25 µg/mL; MIC (Pseudomonas aeruginosa; ATCC10145, Table 7H, P. aeruginosa ATCC 10145, second agent none, read-out: MIC P. aeruginosa ATCC 10145): > 32 µg/mL
(1- aminomethylcyclohexane) carbonyl polymyxin B nonapeptide [Example A34]	>8	>8	8	>8	8	>8	0.5	2	
(2S)-2-Amino-3- cyclohexanepropanoyl polymyxin B nonapeptide [Example A16]	>8	>8	>8	>8	>8	>8	1	>8	
(2S)-Morpholine-2-carbonyl polymyxin B nonapeptide [Example A40]	>8	>8	8	4	4	8	2	4	
(2S)-piperazine-2-carbonyl polymyxin B nonapeptide [Example A49]	>8	>8	4	4	2	>8	2	4	
(2S,3S)-3-Amino-2-hydroxy- 5-methylhexanoyl polymyxin B decapeptide [Example A18]	4	8	8	4	4	4	0.5	1	
(2S,4R)-4-amino-1-(3-amino- 3-cyclohexylpropanoyl)pyrrolidine- 2-carbonyl polymyxin B nonapeptide [Example A29]	2	4	>8	>8	>8	>8	0.25	>8	
